Experiments:
[1] = test system: LNCaP; experiment: IncuCyte % confluence cell growth inhibition, LNCaP; assay type: cell-based; conditions: Homo sapiens, read-out: IC50 values (μM), LNCaP
Description: (§1) Images were then analyzed to discern the % confluence of cells in each well. IC50 values were calculated from dose response curves of the % cell growth inhibition relative to DMSO control at the same time point per each cell line.

[2] = test system: LNCAP AR; experiment: IncuCyte % confluence cell growth inhibition, LNCAP AR; assay type: cell-based; conditions: read-out: IC50 values (μM), LNCAP AR
Description: as §1

[3] = test system: LAPC4; experiment: IncuCyte % confluence cell growth inhibition, LAPC4; assay type: cell-based; conditions: Homo sapiens, LAPC4, read-out: IC50 values (μM), LAPC4
Description: as §1

[4] = test system: DU145; experiment: IncuCyte % confluence cell growth inhibition, DU145; assay type: cell-based; conditions: Homo sapiens, DU-145, read-out: IC50 values (μM), DU145
Description: as §1

[5] = biological target: T1, Aldosterone Receptor (UniProt P22199); experiment: Radioligand competition binding, [3H] aldosterone; conditions: competition with [3H] aldosterone, 20 hours
T1 sequence (P22199 1-981): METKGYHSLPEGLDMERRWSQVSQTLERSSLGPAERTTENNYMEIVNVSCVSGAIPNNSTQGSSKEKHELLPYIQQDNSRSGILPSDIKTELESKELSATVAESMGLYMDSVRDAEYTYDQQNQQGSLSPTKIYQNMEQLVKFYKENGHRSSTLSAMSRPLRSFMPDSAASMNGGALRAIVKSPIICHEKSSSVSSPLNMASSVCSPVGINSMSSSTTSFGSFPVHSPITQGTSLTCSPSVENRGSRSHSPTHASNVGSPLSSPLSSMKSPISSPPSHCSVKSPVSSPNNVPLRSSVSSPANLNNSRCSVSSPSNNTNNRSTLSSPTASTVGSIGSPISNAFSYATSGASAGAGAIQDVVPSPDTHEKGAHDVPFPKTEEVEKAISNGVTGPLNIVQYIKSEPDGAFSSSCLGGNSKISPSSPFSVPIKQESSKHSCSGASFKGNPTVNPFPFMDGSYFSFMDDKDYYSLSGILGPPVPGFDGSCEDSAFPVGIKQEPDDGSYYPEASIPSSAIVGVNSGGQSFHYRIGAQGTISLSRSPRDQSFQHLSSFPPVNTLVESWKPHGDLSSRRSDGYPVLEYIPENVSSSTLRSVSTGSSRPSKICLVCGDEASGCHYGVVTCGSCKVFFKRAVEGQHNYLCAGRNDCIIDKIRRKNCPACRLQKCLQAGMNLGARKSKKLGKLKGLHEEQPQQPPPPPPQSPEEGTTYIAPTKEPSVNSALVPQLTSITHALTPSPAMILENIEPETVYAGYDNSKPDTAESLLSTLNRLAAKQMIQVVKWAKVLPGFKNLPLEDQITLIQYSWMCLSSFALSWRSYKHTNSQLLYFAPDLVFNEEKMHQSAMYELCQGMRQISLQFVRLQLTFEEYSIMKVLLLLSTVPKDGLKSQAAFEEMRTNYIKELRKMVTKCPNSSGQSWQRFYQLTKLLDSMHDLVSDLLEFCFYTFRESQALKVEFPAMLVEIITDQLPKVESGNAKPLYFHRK
Description: (§2) Binding assays were performed via competition with radioactive ligands across a range of dose of compounds 15a and 19d. For aldosterone binding, the aldosterone receptor was incubated for 20 hours with […] aldosterone. Similarly, the androgen receptor was co-incubated with 0.5 nM of [^3H] methyltrienolone, the estrogen receptor alpha was co-incubated with 0.5 nM [^3H] estradiol, the glucocorticoid receptor with 0.5 nM [^3H] dexamethasone, and the progesterone receptor with 0.5 nM [^3H] progesterone as parent ligands.

[6] = biological target: Estrogen Receptor alpha (Homo sapiens, UniProt P03372); experiment: Radioligand competition binding, [3H] estradiol; conditions: competition with 0.5 nM [3H] estradiol
Chain of Estrogen Receptor alpha (P03372 whole entry): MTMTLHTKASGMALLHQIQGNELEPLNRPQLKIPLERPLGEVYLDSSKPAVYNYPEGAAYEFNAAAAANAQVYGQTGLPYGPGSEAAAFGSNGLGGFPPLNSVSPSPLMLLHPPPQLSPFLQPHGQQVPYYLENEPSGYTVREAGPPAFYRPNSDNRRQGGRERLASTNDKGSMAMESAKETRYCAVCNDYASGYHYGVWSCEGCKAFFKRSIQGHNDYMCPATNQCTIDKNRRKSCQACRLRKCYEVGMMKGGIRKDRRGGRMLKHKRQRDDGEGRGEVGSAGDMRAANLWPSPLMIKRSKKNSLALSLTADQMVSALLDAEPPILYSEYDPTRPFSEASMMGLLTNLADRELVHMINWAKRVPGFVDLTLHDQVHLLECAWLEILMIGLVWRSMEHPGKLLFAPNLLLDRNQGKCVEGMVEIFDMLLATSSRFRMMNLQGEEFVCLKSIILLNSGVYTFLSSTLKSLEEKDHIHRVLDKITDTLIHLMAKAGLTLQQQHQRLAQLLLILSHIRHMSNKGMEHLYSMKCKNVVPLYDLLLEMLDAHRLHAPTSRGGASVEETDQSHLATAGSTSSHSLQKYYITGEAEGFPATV
Description: as §2

[7] = biological target: T2, Glucocorticoid Receptor (Homo sapiens, UniProt P04150); experiment: Radioligand competition binding, [3H] dexamethasone; conditions: competition with 0.5 nM [3H] dexamethasone
T2 sequence (P04150 1-777): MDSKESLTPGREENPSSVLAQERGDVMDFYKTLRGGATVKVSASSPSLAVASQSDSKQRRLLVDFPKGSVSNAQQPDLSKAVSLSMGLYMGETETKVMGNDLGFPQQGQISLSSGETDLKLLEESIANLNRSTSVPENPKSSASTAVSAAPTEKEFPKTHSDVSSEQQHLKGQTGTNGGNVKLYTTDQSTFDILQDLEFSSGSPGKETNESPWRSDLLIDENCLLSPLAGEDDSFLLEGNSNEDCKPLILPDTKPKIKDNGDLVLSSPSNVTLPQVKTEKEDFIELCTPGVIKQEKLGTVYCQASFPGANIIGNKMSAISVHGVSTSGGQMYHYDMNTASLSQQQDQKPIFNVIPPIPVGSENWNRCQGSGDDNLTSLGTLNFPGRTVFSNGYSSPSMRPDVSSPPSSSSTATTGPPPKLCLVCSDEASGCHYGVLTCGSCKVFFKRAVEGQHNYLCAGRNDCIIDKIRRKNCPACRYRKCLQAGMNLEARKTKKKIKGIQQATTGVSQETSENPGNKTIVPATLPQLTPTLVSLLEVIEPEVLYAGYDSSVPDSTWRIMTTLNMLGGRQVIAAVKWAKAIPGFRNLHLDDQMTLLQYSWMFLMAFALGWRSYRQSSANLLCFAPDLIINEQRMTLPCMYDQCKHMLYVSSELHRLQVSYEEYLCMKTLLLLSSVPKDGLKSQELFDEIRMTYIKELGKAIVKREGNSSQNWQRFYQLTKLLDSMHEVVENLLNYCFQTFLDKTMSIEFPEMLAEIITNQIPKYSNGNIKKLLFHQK
Description: as §2

[8] = Pharmacokinetics in non-tumor bearing BALB/C mice, IV and PO; assay type: in vivo; conditions: for Cmax—D: dose-normalised; for Tmax / half-life: mouse, plasma
Description: FIG. 14A-B are graphs of time (hours) versus plasma concentration (ng/mL) for intravenous (IV) (FIG. 14A) and oral (PO) (FIG. 14B) administration of 15a and 15n over 12 hours. Error bars represent the standard deviation in ng/mL from three independent mice per time point.
Clearance, Cmax, half life, dose/AUC, and bioavailability were calculated by statistical analysis using PHOENIX™ WINNONLIN™ v7.0 (Certara, Princeton, N.J.). The results are shown in FIGS. 14A and 14B and Table 4.

| Structure (SMILES) | IC50 [1] | IC50 [2] | IC50 [3] | IC50 [4] | IC50 [5] | IC50 [6] | IC50 [7] | Cmax—D ([8]; IV, 1 mg/kg) | Cmax—D ([8]; PO, 20 mg/kg) | Tmax ([8]; IV, 1 mg/kg) | half-life ([8]; IV, 1 mg/kg) | Tmax ([8]; PO, 20 mg/kg) | half-life ([8]; PO, 20 mg/kg) |
| --- | --- | --- | --- | --- | --- | --- | --- | --- | --- | --- | --- | --- | --- |
| CC1(C)C(=O)N(c2ccc(C#N)c(C(F)(F)F)c2)C(=S)N1Cc1ccc(-c2c[nH]nn2)cc1 [Compound 15a, 4-(3-(4-(1H-1,2,3-triazol-4-yl)benzyl)-4,4-dimethyl-5-oxo-2-thioxoimidazolidin-1-yl)-2-(trifluoromethyl)benzonitrile] | 30.5 µM | 17 µM | 13.3 µM | 37.3 µM | > 10000 nM | > 10000 nM | > 10000 nM | 453 kg·ng/mL/mg | 412 kg·ng/mL/mg | 2 h | 18 h | 2 h | 20.6 h |
| CC1(C)C(=O)N(c2ccc(C#N)c(C(F)(F)F)c2)C(=S)N1Cc1ccc(-c2c[nH]nn2)cc1F [Compound 19d, 4-(3-(2-Fluoro-4-(1H-1,2,3-triazol-4-yl)benzyl)-4,4-dimethyl-5-oxo-2-thioxoimidazolidin-1-yl)-2-(trifluoromethyl)benzonitrile] | 35.7 µM | 28.2 µM | 16.3 µM | 53.6 µM | > 10000 nM | > 10000 nM | > 10000 nM | – | – | – | – | – | – |

Reference: patent US20230135524A1, “ARYL HYDANTOIN HETEROCYCLES AND METHODS OF USE” (The United States of America,as represented by the …, priority 2020, published 2023)
